Experimental data reported in patent US20050075375A1 (priority 2003, published 2005).

Tested on: monocistronic NK5.1 HCV replicon in Huh7 cells
Experiment: HCV replicon assay, monocistronic replicon cell line
Assay type: cell-based, hepatitis C virus
Conditions: Hepatitis C virus, Huh-7; monocistronic NK5.1 HCV replicon in Huh7 cells; median value; read-out: Mono EC50 Median
Method in brief: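 EC50 derives from the HCV RNA/GAPDH RNA ratio by one-step TaqMan RT-PCR, relative to DMSO-only wells. Compounds (six half-log concentrations, 0.6% DMSO) were incubated 3 days at 37 °C with NK5.1 monocistronic replicon Huh7 cells plated a day earlier.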

SMILES	EC50
COc1ccccc1-c1nnc(-c2ccccc2F)o1 [Compound 326, 2-(2-Fluoro-phenyl)-5-(2-methoxy-phenyl)-[1,3,4]oxadiazole]	> 32 µM
COc1ccccc1-c1nnc(-c2ccccc2C(F)(F)F)o1 [Compound 327, 2-(2-Methoxy-phenyl)-5-(2-trifluoromethyl-phenyl)-[1,3,4]oxadiazole]	25 µM
COc1ccccc1-c1nnc(-c2ccccc2[N+](=O)[O-])o1 [Compound 328, 2-(2-Methoxy-phenyl)-5-(2-nitro-phenyl)-[1,3,4]oxadiazole]	> 32 µM
COc1ccccc1-c1nnc(-c2c(Cl)cccc2Cl)o1 [Compound 329, 2-(2,6-Dichloro-phenyl)-5-(2-methoxy-phenyl)-[1,3,4]oxadiazole]	> 32 µM
COc1ccccc1-c1nnc(-c2ccco2)o1 [Compound 330, 2-Furan-2-yl-5-(2-methoxy-phenyl)-[1,3,4]oxadiazole]	> 32 µM
COc1ccccc1-c1nnc(-c2cccs2)o1 [Compound 331, 2-(2-Methoxy-phenyl)-5-thiophen-2-yl-[1,3,4]oxadiazole]	> 32 µM
Fc1ccccc1-c1nnc(-c2ccccc2)o1 [Compound 332, 2-(2-Fluoro-phenyl)-5-phenyl-[1,3,4]oxadiazole]	> 32 µM
Fc1ccccc1-c1nnc(-c2ccccc2F)o1 [Compound 333, 2,5-Bis-(2-fluoro-phenyl)-[1,3,4]oxadiazole]	> 32 µM
Fc1ccccc1-c1nnc(-c2ccccc2C(F)(F)F)o1 [Compound 334, 2-(2-Fluoro-phenyl)-5-(2-trifluoromethyl-phenyl)-[1,3,4]oxadiazole]	> 32 µM
Fc1ccccc1-c1nnc(-c2c(Cl)cccc2Cl)o1 [Compound 335, 2-(2,6-Dichloro-phenyl)-5-(2-fluoro-phenyl)-[1,3,4]oxadiazole]	> 32 µM
Fc1ccccc1-c1nnc(-c2ccco2)o1 [Compound 336, 2-(2-Fluoro-phenyl)-5-furan-2-yl-[1,3,4]oxadiazole]	> 32 µM
Fc1ccccc1-c1nnc(-c2cccs2)o1 [Compound 337, 2-(2-Fluoro-phenyl)-5-thiophen-2-yl-[1,3,4]oxadiazole]	> 32 µM
Oc1ccc2ccccc2c1-c1nnc(-c2ncccc2C(F)(F)F)o1 [Compound 338, 1-[5-(3-Trifluoromethyl-pyridin-2-yl)-[1,3,4]oxadiazol-2-yl]-naphthalen-2-ol]	> 19 µM
Cc1ccccc1-c1nnc(-c2ccccn2)o1 [Compound 339, 2-(5-o-Tolyl-[1,3,4]oxadiazol-2-yl)-pyridine]	> 32 µM
Cc1ccccc1-c1nnc(-c2ncccc2C(F)(F)F)o1 [Compound 340, 2-(5-o-Tolyl-[1,3,4]oxadiazol-2-yl)-3-trifluoromethyl-pyridine]	> 32 µM
Cc1ccccc1-c1nnc(-c2ncc(C(F)(F)F)cc2Cl)o1 [Compound 341, 3-Chloro-2-(5-o-tolyl-[1,3,4]oxadiazol-2-yl)-5-trifluoromethyl-pyridine]	20 µM
Oc1ccccc1-c1nnc(-c2ncccc2C(F)(F)F)o1 [Compound 342, 2-[5-(3-Trifluoromethyl-pyridin-2-yl)-[1,3,4]oxadiazol-2-yl]-phenol]	> 32 µM
Oc1ccccc1-c1nnc(-c2ncc(C(F)(F)F)cc2Cl)o1 [Compound 343, 2-[5-(3-Chloro-5-trifluoromethyl-pyridin-2-yl)-[1,3,4]oxadiazol-2-yl]-phenol]	17 µM
COc1ccccc1-c1nnc(-c2ccccn2)o1 [Compound 344, 2-[5-(2-Methoxy-phenyl)-[1,3,4]oxadiazol-2-yl]-pyridine]	> 32 µM
COc1ccccc1-c1nnc(-c2ncccc2C(F)(F)F)o1 [Compound 345]	8.3 µM
COc1ccccc1-c1nnc(-c2ncc(C(F)(F)F)cc2Cl)o1 [Compound 346, 3-Chloro-2-[5-(2-methoxy-phenyl)-[1,3,4]oxadiazol-2-yl]-5-trifluoromethyl-pyridine]	> 32 µM
Fc1ccccc1-c1nnc(-c2ccccn2)o1 [Compound 347, 2-[5-(2-Fluoro-phenyl)-[1,3,4]oxadiazol-2-yl]-pyridine]	> 32 µM
Fc1ccccc1-c1nnc(-c2ncccc2C(F)(F)F)o1 [Compound 348, 2-[5-(2-Fluoro-phenyl)-[1,3,4]oxadiazol-2-yl]-3-trifluoromethyl-pyridine]	> 32 µM
Fc1ccccc1-c1nnc(-c2ncc(C(F)(F)F)cc2Cl)o1 [Compound 349, 3-Chloro-2-[5-(2-fluoro-phenyl)-[1,3,4]oxadiazol-2-yl]-5-trifluoromethyl-pyridine]	> 32 µM
c1ccc(-c2n[nH]c(-c3cccc4ccccc34)n2)nc1 [Compound 350, 2-(5-Naphthalen-1-yl-1H-[1,2,4]triazol-3-yl)-pyridine]	> 19 µM
CC(C)(C)c1ccc(O)c(-c2nc(-c3ccccn3)n[nH]2)c1 [Compound 351, 4-tert-Butyl-2-(5-pyridin-2-yl-2H-[1,2,4]triazol-3-yl)-phenol]	8.6 µM

SMILES	EC50
O=[N+]([O-])c1ccc(O)c(-c2nc(-c3ccccn3)n[nH]2)c1 [Compound 352, 4-Nitro-2-(5-pyridin-2-yl-2H-[1,2,4]triazol-3-yl)-phenol]	14 µM
Oc1ccc(F)cc1-c1nc(-c2ccccn2)n[nH]1 [Compound 353, 4-Fluoro-2-(5-pyridin-2-yl-2H-[1,2,4]triazol-3-yl)-phenol]	7.1 µM
Oc1ccc(Cl)cc1-c1nc(-c2ccccn2)n[nH]1 [Compound 354, 4-Chloro-2-(5-pyridin-2-yl-2H-[1,2,4]triazol-3-yl)-phenol]	4.8 µM
CCOc1cccc(-c2nc(-c3ccccn3)n[nH]2)c1O [Compound 355, 6-Ethoxy-2-(5-pyridin-2-yl-2H-[1,2,4]triazol-3-yl)-phenol]	> 19 µM
Oc1cc(OCc2ccccc2)ccc1-c1nc(-c2ccccn2)n[nH]1 [Compound 356, 5-Benzyloxy-2-(5-pyridin-2-yl-2H-[1,2,4]triazol-3-yl)-phenol]	> 19 µM
Fc1cc(-c2nc(-c3ccccn3)n[nH]2)ccc1-c1ccccc1 [Compound 357, 2-[5-(2-Fluoro-biphenyl-4-yl)-1H-[1,2,4]triazol-3-yl]-pyridine]	7.1 µM
Oc1ccc(Br)cc1-c1nc(-c2ccccn2)n[nH]1 [Compound 358, 4-Bromo-2-(5-pyridin-2-yl-2H-[1,2,4]triazol-3-yl)-phenol]	4.3 µM
Cc1ccc(O)c(-c2nc(-c3ccccn3)n[nH]2)c1 [Compound 359, 4-Methyl-2-(5-pyridin-2-yl-2H-[1,2,4]triazol-3-yl)-phenol]	> 19 µM
COc1ccc(O)c(-c2nc(-c3ccccn3)n[nH]2)c1 [Compound 360, 4-Methoxy-2-(5-pyridin-2-yl-2H-[1,2,4]triazol-3-yl)-phenol]	5.4 µM
Oc1ccccc1-c1nc(-c2ccccn2)n[nH]1 [Compound 361, 2-(5-pyridin-2-yl-2H-[1,2,4]triazol-3-yl)-phenol]	> 19 µM
COc1cccc(-c2nc(-c3ccccn3)n[nH]2)c1O [Compound 362, 6-Methoxy-2-(5-pyridin-2-yl-2H-[1,2,4]triazol-3-yl)-phenol]	> 19 µM
COc1ccc(-c2nc(-c3ccccn3)n[nH]2)c(O)c1 [Compound 363, 5-Methoxy-2-(5-pyridin-2-yl-2H-[1,2,4]triazol-3-yl)-phenol]	> 19 µM
O=[N+]([O-])c1cccc(-c2nc(-c3ccccn3)n[nH]2)c1 [Compound 364, 2-[5-(3-Nitro-phenyl)-1H-[1,2,4]triazol-3-yl]-pyridine]	> 32 µM
CCN(CC)c1ccc(-c2nc(-c3ccccn3)n[nH]2)c(O)c1 [Compound 365, 5-Diethylamino-2-(5-pyridin-2-yl-2H-[1,2,4]triazol-3-yl)-phenol]	> 32 µM
c1ccc2c(-c3nc(-c4nccc5ccccc45)n[nH]3)cccc2c1 [Compound 366, 1-(5-Naphthalen-1-yl-1H-[1,2,4]triazol-3-yl)-isoquinoline]	> 32 µM
CC(C)(C)c1ccc(O)c(-c2nc(-c3nccc4ccccc34)n[nH]2)c1 [Compound 367, 4-tert-Butyl-2-(5-isoquinolin-1-yl-2H-[1,2,4]triazol-3-yl)-phenol]	> 32 µM
O=[N+]([O-])c1ccc(O)c(-c2nc(-c3nccc4ccccc34)n[nH]2)c1 [Compound 368, 4-Nitro-2-(5-isoquinolin-1-yl-2H-[1,2,4]triazol-3-yl)-phenol]	> 32 µM
Oc1ccc(F)cc1-c1nc(-c2nccc3ccccc23)n[nH]1 [Compound 369, 4-Fluoro-2-(5-isoquinolin-1-yl-2H-[1,2,4]triazol-3-yl)-phenol]	3.5 µM
COc1ccc(O)c(-c2nc(-c3nccc4ccccc34)n[nH]2)c1 [Compound 370, 4-Methoxy-2-(5-isoquinolin-1-yl-2H-[1,2,4]triazol-3-yl)-phenol]	2.9 µM
Oc1ccc(Cl)cc1-c1nc(-c2nccc3ccccc23)n[nH]1 [Compound 371, 4-Chloro-2-(5-isoquinolin-1-yl-2H-[1,2,4]triazol-3-yl)-phenol]	> 19 µM
CCOc1cccc(-c2nc(-c3nccc4ccccc34)n[nH]2)c1O [Compound 372, 6-Ethoxy-2-(5-isoquinolin-1-yl-2H-[1,2,4]triazol-3-yl)-phenol]	> 19 µM
Oc1cc(OCc2ccccc2)ccc1-c1nc(-c2nccc3ccccc23)n[nH]1 [Compound 373, 5-Benzyloxy-2-(5-isoquinolin-1-yl-2H-[1,2,4]triazol-3-yl)-phenol]	> 19 µM
Oc1ccc(Br)cc1-c1nc(-c2nccc3ccccc23)n[nH]1 [Compound 374, 4-Bromo-2-(5-isoquinolin-1-yl-2H-[1,2,4]triazol-3-yl)-phenol]	> 19 µM
Cc1ccc(O)c(-c2nc(-c3nccc4ccccc34)n[nH]2)c1 [Compound 375, 4-Methyl-2-(5-isoquinolin-1-yl-2H-[1,2,4]triazol-3-yl)-phenol]	> 19 µM
COc1ccc(-c2nc(-c3nccc4ccccc34)n[nH]2)c(O)c1 [Compound 376, 5-Methoxy-2-(5-isoquinolin-1-yl-2H-[1,2,4]triazol-3-yl)-phenol]	> 19 µM
